This test deals with casein kinase 1 epsilon (CK1 epsilon) (Homo sapiens (Human), UniProt P49674). In words: Test A: inhibitory activity on CK1 epsilon, casein phosphorylation assay on ATP-33P filter plate. The format is biochemical. The settings on record: IC50 values or IC50 ranges (result of several experiments), ATP 10 μM final. The method, then:
The capacity of the compounds of the invention to inhibit the phosphorylation of casein by casein kinase 1 epsilon and/or delta may be evaluated according to the procedures described in document US 2005/0 131 012.
Test A: Inhibitory Activity on CK1 Epsilon Measured by Assay on an ATP-^33P Filter Plate
The effect of the compounds on inhibition of the phosphorylation of casein by the enzyme casein kinase 1 epsilon (CK1 epsilon) is measured, using a casein assay via filtration of ATP-^33P in vitro.
Casein kinase 1 epsilon (0.58 mg/ml) is obtained via fermentation and purification processes performed according to methods that are well known to those skilled in the art, or may also be obtained from Invitrogen Corporation™ (human CK1 epsilon).
The compounds are tested at five different concentrations so as to generate IC50 values, i.e. the concentration at which a compound is capable of inhibiting the enzymatic activity by 50%, or alternatively the percentage of inhibition at a concentration of 10 micromolar.
“U”-bottomed Falcon plates are prepared by placing 5 μL of solutions of the compounds according to the invention at concentrations of 10, 1, 0.1, 0.01 or 0.001 μM in different wells. The solutions of the compounds according to the invention at these various concentrations are prepared by diluting in a test buffer (Tris 50 mM pH 7.5, MgCl2 […], DTT 2 mM and EGTA 1 mM) a stock solution in DMSO at a concentration of 10 mM. Next, 5 μL of dephosphorylated casein are added to a final concentration of 0.2 μg/μL, 20 μL of CK1 epsilon to a final concentration of 3 ng/μL, and 20 μL of ATP-^33P to a final concentration of 0.02 μCi/μL mixed with cold ATP (10 μM final—approximately 2×10^6 CPM per well). The final total test volume per well is equal to 50 μL.
The “U”-bottomed Falcon® test plate mentioned above is vortexed, and then incubated at room temperature for 2 hours. After 2 hours the reaction is stopped by adding an ice-cold solution of 65 μL of cold ATP (2 mM) prepared in test buffer.
100 μL of the reaction mixture are then transferred from the “U”-bottomed Falcon® plate into Millipore® MAPH filter plates, preimpregnated with 25 μL of ice-cold 100% TCA.
The Millipore MAPH filter plates are agitated gently and are left to stand at room temperature for at least 30 minutes to precipitate the proteins.
After 30 minutes, the filter plates are sequentially washed and filtered with 2×150 μL of 20% TCA, 2×150 μL of 10% TCA and 2×150 μL of 5% TCA (6 washes in total per plate/900 μL per well).
The plates are left to dry overnight at room temperature. Next, 40 μL of Microscint-20 Packard® scintillation liquid are added per well and the plates are closed in a leaktight manner. The radiation emitted by each well is then measured for 2 minutes in a TopCount NXT Packard® scintillation counter, in which the values of CPM/well are measured.
The percentage inhibition of the capacity of the enzyme to phosphorylate the substrate (casein) is determined for each concentration of test compound. These inhibition data expressed as percentages are used to calculate the IC50 value for each compound compared with the controls.
The kinetic studies determined the KM value for ATP as being 21 μM in this test system.
Table 2 below gives the IC50 values or the IC50 inhibition ranges (result of several experiments) for the phosphorylation of Casein Kinase 1 Epsilon for a number of compounds according to the invention.
Sequence of casein kinase 1 epsilon (CK1 epsilon) (P49674 whole entry): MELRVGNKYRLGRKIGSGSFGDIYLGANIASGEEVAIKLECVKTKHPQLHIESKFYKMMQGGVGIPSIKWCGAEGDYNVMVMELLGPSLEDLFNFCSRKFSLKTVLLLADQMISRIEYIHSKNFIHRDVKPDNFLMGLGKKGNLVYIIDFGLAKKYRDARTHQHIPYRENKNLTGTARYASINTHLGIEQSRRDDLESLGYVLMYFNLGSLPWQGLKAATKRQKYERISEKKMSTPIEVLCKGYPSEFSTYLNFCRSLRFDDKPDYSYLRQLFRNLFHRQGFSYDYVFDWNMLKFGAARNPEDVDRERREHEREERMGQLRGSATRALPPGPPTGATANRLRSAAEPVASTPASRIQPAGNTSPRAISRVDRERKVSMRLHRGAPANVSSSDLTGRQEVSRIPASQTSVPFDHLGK
Turning to `CC(C)(C)NC(=O)N1CCn2c(c(C(N)=O)c(-c3ccc(NS(C)(=O)=O)cc3)c2C2CC2)C1` [Compound 29, N^2-tert-butyl-6-cyclo-propyl-7-{4-[(methylsulfonyl)amino]phenyl}-3,4-dihydropyrrolo[1,2-a]pyrazine-2,8(1H)-dicarboxamide], the half-maximal inhibitory concentration (IC50) was found to be 532 nM.

The compound `CC(C)(C)NC(=O)N1CCn2c(c(C(N)=O)c(-c3cccc(C(F)(F)F)c3)c2C2CC2)C1` [Compound 16, N^2-tert-butyl-6-cyclo-propyl-7-[3-(trifluoromethyl)phenyl]-3,4-dihydropyrrolo[1,2-a]pyrazine-2,8(1H)-dicarboxamide] gave an IC50 of 19 to 57 nM.

`CC(C)(C)NC(=O)N1CCn2c(c(C(N)=O)c(-c3ccc(C(=O)NC4CC4)cc3)c2C2CC2)C1` [Compound 18, N^2-tert-butyl-6-cyclo-propyl-7-[4-(cyclo-propylcarbamoyl)phenyl]-3,4-dihydropyrrolo[1,2-a]pyrazine-2,8(1H)-dicarboxamide] came in with an IC50 of 963 nM.

Compound `CC(C)(C)NC(=O)N1CCn2c(c(C(N)=O)c(-c3ccc(C#N)cc3)c2C2CC2)C1` [Compound 22, N^2-tert-butyl-7-(4-cyanophenyl)-6-cyclo-propyl-3,4-dihydropyrrolo[1,2-a]pyrazine-2,8(1H)-dicarboxamide] returned a 50% inhibitory concentration (IC50) of 25 nM.

The compound `CC(C)(C)NC(=O)N1CCn2c(c(C(N)=O)c(-c3cccc(OCC4CC4)c3)c2C2CC2)C1` [Compound 33, N^2-tert-butyl-6-cyclo-propyl-7-[3-(cyclo-propylmethoxy)phenyl]-3,4-dihydropyrrolo[1,2-a]pyrazine-2,8(1H)-dicarboxamide] had a half-maximal inhibitory concentration (IC50) of 847 nM.

In turn, `CC(C)(C)NC(=O)N1CCn2c(c(C(N)=O)c(-c3ccc(OCc4ccc(F)cc4)cc3)c2C2CC2)C1` [Compound 41, N^2-tert-butyl-6-cyclo-propyl-7-{4-[(4-fluorobenzyl)oxy]phenyl}-3,4-dihydropyrrolo[1,2-a]pyrazine-2,8(1H)-dicarboxamide] came in with an IC50 of 42 nM.

`CC(C)(C)NC(=O)N1CCn2c(c(C(N)=O)c(-c3ccc(-n4cccn4)cc3)c2C2CC2)C1` [Compound 31, N^2-tert-butyl-6-cyclo-propyl-7-[4-(1H-pyrazol-1-yl)phenyl]-3,4-dihydropyrrolo[1,2-a]pyrazine-2,8(1H)-dicarboxamide]: the IC50 is 5 to 29 nM.

`NC(=O)c1c(-c2ccccc2)c(Cl)n2c1CN(C(=O)NC1CCS(=O)(=O)C1)CC2` (stereo not shown) [Compound 101, 6-chloro-N^2-(1,1-dioxydotetrahydrothiophen-3-yl)-7-phenyl-3,4-dihydropyrrolo[1,2-a]pyrazine-2,8(1H)-dicarboxamide] gave a half-inhibitory concentration (IC50) of 9 to 24 nM.

`CN(C)c1ccc(-c2c(C(N)=O)c3n(c2C2CC2)CCN(C(=O)NC(C)(C)C)C3)cc1` [Compound 28, N^2-tert-butyl-6-cyclo-propyl-7-[4-(dimethylamino)phenyl]-3,4-dihydropyrrolo[1,2-a]pyrazine-2,8(1H)-dicarboxamide]: the concentration for half-maximal inhibition (IC50) is 4 nM.

`CC(C)CNC(=O)N1CCn2c(c(C(N)=O)c(-c3ccccc3)c2C2CC2)C1` [Compound 9, 6-cyclo-propyl-7-phenyl-N^2-(iso-butyl)-3,4-dihydropyrrolo[1,2-a]pyrazine-2,8(1H)-dicarboxamide] returned an IC50 of 49 nM.

In turn, `Cc1c(-c2ccc(Oc3ccccc3)cc2)c(C(N)=O)c2n1CCN(C(=O)NC(C)(C)C)C2` [Compound 5, N^2-tert-butyl-6-methyl-7-(4-phenoxyphenyl)-3,4-dihydropyrrolo[1,2-a]pyrazine-2,8(1H)-dicarboxamide] came in with an IC50 of 34 to 78 nM.

Compound `CC(C)CNC(=O)N1CCn2c(Cl)c(-c3ccccc3)c(C(N)=O)c2C1` [Compound 59, 6-chloro-N^2-iso-butyl-7-phenyl-3,4-dihydropyrrolo[1,2-a]pyrazine-2,8(1H)-dicarboxamide] returned a half-maximal inhibitory concentration (IC50) of 8 to 13 nM.

`CC(C)(C)CC(C)(C)NC(=O)N1CCn2c(c(C(N)=O)c(-c3ccccc3)c2C2CC2)C1` [Compound 52, 6-cyclo-propyl-7-phenyl-N^2-(2,4,4-trimethylpentan-2-yl)-3,4-dihydropyrrolo[1,2-a]pyrazine-2,8(1H)-dicarboxamide] showed an IC50 of 45 nM.

For `NC(=O)c1c(-c2ccccc2)c(C2CC2)n2c1CN(C(=O)NCC1CCCCC1)CC2` [Compound 50, N^2-(cyclo-hexylmethyl)-6-cyclo-propyl-7-phenyl-3,4-dihydropyrrolo[1,2-a]pyrazine-2,8(1H)-dicarboxamide], the IC50 came out at 25 nM.

With `CON(C)C(=O)c1ccc(-c2c(C(N)=O)c3n(c2C2CC2)CCN(C(=O)NC(C)(C)C)C3)cc1` [Compound 20, N^2-tert-butyl-6-cyclo-propyl-7-{4-[methoxy(methyl)carbamoyl]phenyl}-3,4-dihydropyrrolo[1,2-a]pyrazine-2,8(1H)-dicarboxamide], half-maximal inhibition (IC50) was put at 620 nM.

`NC(=O)c1c(-c2cccc(F)c2)c(Cl)n2c1CN(C(=O)NC1CCS(=O)(=O)CC1)CC2` [Compound 103, 6-chloro-N^2-(1,1-dioxydotetrahydro-2H-thiopyran-4-yl)-7-(3-fluorophenyl)-3,4-dihydropyrrolo[1,2-a]pyrazine-2,8(1H)-dicarboxamide] returned an IC50 of 7 to 14 nM.

On to `CC(C)(C)NC(=O)N1CCn2c(c(C(N)=O)c(-c3ccc(OCC#N)cc3)c2C2CC2)C1` [Compound 43, N^2-tert-butyl-7-[4-(cyanomethoxy)phenyl]-6-cyclo-propyl-3,4-dihydropyrrolo[1,2-a]pyrazine-2,8(1H)-dicarboxamide], for which the IC50 turned out to be 24 nM.

The compound `CC(C)(C)NC(=O)N1CCn2c(c(C(N)=O)c(-c3ccc(C(F)(F)F)cc3)c2C2CC2)C1` [Compound 24, N^2-tert-butyl-6-cyclo-propyl-7-[4-(trifluoromethyl)phenyl]-3,4-dihydropyrrolo[1,2-a]pyrazine-2,8(1H)-dicarboxamide] gave an IC50 of 84 nM.

On to `NC(=O)c1c(-c2ccccc2)c(C2CC2)n2c1CN(C(=O)NC1CCCCC1)CC2` [Compound 49, N^2-cyclo-hexyl-6-cyclo-propyl-7-phenyl-3,4-dihydropyrrolo[1,2-a]pyrazine-2,8(1H)-dicarboxamide], for which the IC50 was 17 to 28 nM.

Compound `CC(C)(C)NC(=O)N1CCn2c(c(C(N)=O)c(-c3cccc(C#N)c3)c2C2CC2)C1` [Compound 21, N^2-tert-butyl-7-(3-cyanophenyl)-6-cyclo-propyl-3,4-dihydropyrrolo[1,2-a]pyrazine-2,8(1H)-dicarboxamide] showed an IC50 of 26 to 46 nM.

For the compound `CC(C)(C)CCNC(=O)N1CCn2c(Cl)c(-c3ccccc3)c(C(N)=O)c2C1` [Compound 72, 6-chloro-N^2-(3,3-dimethylbutyl)-7-phenyl-3,4-dihydropyrrolo[1,2-a]pyrazine-2,8(1H)-dicarboxamide], the IC50 was 1 to 17 nM.

`Cc1cccc(-c2c(C(N)=O)c3n(c2C2CC2)CCN(C(=O)NC(C)(C)C)C3)c1` [Compound 11, N^2-tert-butyl-6-cyclo-propyl-7-(3-methylphenyl)-3,4-dihydropyrrolo[1,2-a]pyrazine-2,8(1H)-dicarboxamide]: the concentration for half-maximal inhibition (IC50) lay in the range of 3 to 6 nM.

The compound `CC(C)(C)NC(=O)N1CCn2c(c(C(N)=O)c(-c3cccc(-n4cccn4)c3)c2C2CC2)C1` [Compound 27, N^2-tert-butyl-6-cyclo-propyl-7-[3-(1H-pyrazol-1-yl)phenyl]-3,4-dihydropyrrolo[1,2-a]pyrazine-2,8(1H)-dicarboxamide] had an IC50 of 23 nM.

`CSc1ccc(-c2c(C(N)=O)c3n(c2C2CC2)CCN(C(=O)NC(C)(C)C)C3)cc1` [Compound 48, N^2-tert-butyl-6-cyclo-propyl-7-[4-(methylsulfanyl)phenyl]-3,4-dihydropyrrolo[1,2-a]pyrazine-2,8(1H)-dicarboxamide] displayed a concentration for half-maximal inhibition (IC50) of 1 to 2 nM.

Consider `CC(C)c1ccc(-c2c(C(N)=O)c3n(c2C2CC2)CCN(C(=O)NC(C)(C)C)C3)cc1` [Compound 13, N^2-tert-butyl-6-cyclo-propyl-7-[4-(iso-propyl)phenyl]-3,4-dihydropyrrolo[1,2-a]pyrazine-2,8(1H)-dicarboxamide], for which the IC50 lay within 450 to 1000 nM.

(Values after patent US9233965B2, “3,4-dihydropyrrolo[1,2-A]pyrazine-2,8(1H)-dicarboxamide derivatives, preparation thereof and therapeutic use thereof for diseases involving casein kinase 1 epsilon and/or casein kinase 1 delta” (SANOFI, priority 2010, dated 2016).)
